Measurements taken from publication PMC7321108, “1-Hydroxyanthraquinones Containing Aryl Substituents as Potent and Selective Anticancer Agents” (Molecules, 2020).
Like-named read-outs stand apart in the source and are kept apart here.

What was measured:
[1] = test system: LNCAP prostate cancer cells; assay: MTT cytotoxicity assay, LNCAP; format: cell-based, human; settings: 72 h incubation, mean ± SEM of three experiments, read-out: Cytotoxicity (GI50) against LNCAP
Method: (§1) The cytotoxicity of the synthesized series of 4-substituted 5, 13–17, 22, 23, 2-substituted 25–30 and 2,4-disubstituted 1-hydroxy-9,10-anthraquinones 33–38, 40–45 was evaluated against a panel of seven different human cancer cell lines (glioblastoma cancer cells, human prostate cancer cells, T-cellular human leucosis, breast cancer cells) and also a normal cell line of hTERT-immortalized lung fibroblasts, using conventional MTT assay. Doxorubicin (DOX) is clinically used to treat cancer as drug in world and have a very wide antitumor spectrum. That we use them as positive control compounds. The cytotoxicity was determined by measuring the concentration inhibiting human tumor cell viability by 50% (GI50).
(§2) The human cancer cells of the glioblastoma (U-87MG, SNB-19, T98G), prostate cancer cell line (LNCAP, DU-145), the cells of T-cellular human leucosis (MT-4) and human breast cancer cells (MDA-MB-231) were used in this study. The cells were cultured in the RPMI-1640 medium that contained 10% embryonic calf serum, L-glutamine (2 mmol/L), gentamicin ([…]) and lincomycin (30 mkg/mL) in a CO2 incubator at 37 °C. The tested compounds were dissolved in DMSO and added to the cellular culture at the required concentrations. Three wells were used for each concentration. The cells which were incubated without the compounds were used as a control. Cells were placed on 96-well microliter plates and cultivated at 37 °C in 5% CO2/95% air for 72 h. The cell viability was assessed through an MTT [3-(4,5-dimethylthiazol-2-yl)-[…]-2H-tetrazolium bromide] conversion assay. A total of 1% MTT was added to each well. Four hours later, DMSO was added and mixed for 15 min. Optical density (D) of the samples was measured on a BioRad 680 multi-well spectrophotometer (USA) at the wavelength of 450 nm. The 50% cytotoxic dose GI50) of each compound (i.e., the compound concentration that causes the death of 50% of cells in a culture, or decreases the optical density twice as compared to the control wells) was calculated from the data obtained. Statistical processing of the results was performed using the Microsoft Excel-2007, […] 6.0 and GraphPad Prism 5.0 programs. The results are given as an average value ± a deviation from the average (mean ± standard error of the mean (SEM)). Reliability of differences (p) was estimated using the Student t test. The differences with p < 0.05 were considered as reliable. The experimental results are given as the data average values obtained from three independently conducted experiments.

[2] = test system: U-87MG glioblastoma cells; assay: MTT cytotoxicity assay, U-87MG; format: cell-based; settings: Homo sapiens, 72 h incubation, mean ± SEM of three experiments, read-out: Cytotoxicity (GI50) against U-87MG
Method: as §1, §2

[3] = MTT cytotoxicity assay, normal hTERT-immortalized lung fibroblasts; format: cell-based; settings: human, hTERT-immortalized lung fibroblasts (normal cell line), 72 h incubation, mean ± SEM of three experiments, read-out: Cytotoxicity (GI50) against hTERT Lung Fibroblasts
Method: as §1, §2

T98G glioblastoma cells = assay: MTT cytotoxicity assay, T98G; format: cell-based; settings: Homo sapiens, 72 h incubation, mean ± SEM of three experiments, read-out: Cytotoxicity (GI50) against T98G
Method: as §1, §2

[4] = test system: MDA-MB-231 breast cancer cells; assay: MTT cytotoxicity assay, MDA-MB-231; format: cell-based; settings: Homo sapiens, 72 h incubation, mean ± SEM of three experiments, read-out: Cytotoxicity (GI50) against MDA-MB-231
Method: as §1, §2

pUC19 DNA plasmid = assay: Gel retardation (electrophoretic mobility shift) assay; format: binding; settings: 0.5 µg pUC19 plasmid, 0.025 µM test compound, room temperature 1 h, agarose gel 60 V 4 h
Method: The interaction of compounds 13, 15, 16, 23, 25 27, 28, 35, 40 and 44 with DNA was experimentally confirmed by study of the electrophoretic mobility. For this the gel retardation assay was performed. Doxorubicin in different concentration was used as a positive control. In order to avoid destruction of the possible complex of DNA with compounds, the electrophoresis was performed at low voltage. The results are presented at Figure 3.
To study the interaction between test compounds and DNA the electrophoretic mobility shift assay was performed. 0.5 µg of pUC19 plasmid was incubated with 0.025 µM of test compounds at room temperature for 1 h. After that the electrophoresis was performed in agarose gel (1/2%) in TBE buffer (60 V, 4 h). For visualization the gel was staining with ethidium bromide and analyzed with Bio-Rad gel documentation system.

[5] = test system: MT-4 cells of T-cellular human leucosis; assay: MTT cytotoxicity assay, MT-4; format: cell-based; settings: MT4, 72 h incubation, mean ± SEM of three experiments, read-out: Cytotoxicity (GI50) against MT-4
Method: as §1, §2

[6] = test system: DU-145 prostate cancer cells; assay: MTT cytotoxicity assay, DU-145; format: cell-based, human; settings: Homo sapiens, DU-145, 72 h, 72 h incubation, mean ± SEM of three experiments, read-out: Cytotoxicity (GI50) against DU-145
Method: as §1, §2

[7] = test system: SNB-19 glioblastoma cells; assay: MTT cytotoxicity assay, SNB-19; format: cell-based; settings: Homo sapiens, 72 h incubation, mean ± SEM of three experiments, read-out: Cytotoxicity (GI50) against SNB-19
Method: as §1, §2

SNB-19 cells [8] = assay: DNA synthesis investigation (BrdU/PI flow cytometry), SNB-19; format: cell-based, human; settings: SNB-19, treated at GI50 concentration, 24 h, BrdU 30 min
SNB-19 cells [9] = assay: Cell cycle analysis by flow cytometry (Hoechst 33342), SNB-19; format: cell-based, human; settings: SNB-19, treated at GI50 concentration, 24 h
Method: Due to the fact that the implementation of the antitumor potential of the currently existing antitumor agents is carried out by acting on various biological targets, at the next stage we performed the cell cycle analysis and DNA synthesis. Cell cycle analysis of 1-hydroxy-4-phenyl-9,10-anthraquinone 13, 1-hydroxy-4-(2,3-dimethoxyphenyl)-9,10- anthraquinone 16, 1-hydroxy-4-(furan-3-yl)-9,10-anthraquinone 23 and 1-hydroxy- 2-(2,3-dimethoxyphenyl)-9,10-anthraquinone 28 against SNB-19 cells for 24 h produced interesting results. After examining the data for compounds 13 and 16 (Table 3, Figure 4C,D), good number of cells are distributed in S phase, i.e., initiated DNA replication mechanism and also in G0/G1 phase, i.e., initial phase of cell cycle. G1 and G2 are the growth phases in cell cycle analysis, whereas S phase is a synthetic phase wherein DNA replication and DNA synthesis take place. The 2-aryl substituted compound 28 initiated the G0/G1 phase in analogy with doxorubicin and mitomycin. […] Further, compounds play a vital role in controlling the regulation of Sub-G1 and G2/M phases. Some difference in the mechanism of operation of 4-aryl substituted 13,16 and 2-aryl substituted 9,10-anthraquinones 28 has been observed during the progression of cell cycle like: S phase was highly disturbed by 13; G0/G1 phase was highly disturbed by 28. […] This observation can be explained by the influence on the cell repair systems that respond to the intercalation of compounds in DNA. […] Further, mitoxantrone promotes the arrest of S phase of cell cycle.
For cell cycle analysis cells were seeded in 6-well plates (30,000 per plate) and incubate for adhesion for 24 h. […] Cells were washed with PBS twice, harvested, pelleted and resuspended in 0.5 mL of PBS. For staining the Hoechst 33342 Ready Flow Reagent (Invitrogen) was used according to the instruction. CytoFLEX flow cytometer (Beckman Coulter) was used for analysis. The results are presented as a percentage of cell population standing in different stages of the cell cycle.

| melting point | SMILES | GI50 ([1]; Homo sapiens, LNCaP, 72 h) [µM] | GI50 [2] [µM] | GI50 at 72 h [3] [µM] | GI50 (T98G glioblastoma cells) [µM] | GI50 [4] [µM] | Retardation of plasmid DNA (electrophoretic mobility) (pUC19 DNA plasmid) | GI50 [5] [µM] | GI50 [6] [µM] | GI50 [7] [µM] | Population (% Cell Distribution) DNA Synthesis (SNB-19 cells [8]) [%] | Population (% Cell Distribution) G0/G1 (SNB-19 cells [9]) [%] | Population (% Cell Distribution) G2/M (SNB-19 cells [9]) [%] | Population (% Cell Distribution) S (SNB-19 cells [9]) [%] | Population (% Cell Distribution) Sub-G1 (SNB-19 cells [9]) [%] | Population (% Cell Distribution) Super-G2 (SNB-19 cells [9]) [%] | GI50 [1] [µM] |
| --- | --- | --- | --- | --- | --- | --- | --- | --- | --- | --- | --- | --- | --- | --- | --- | --- | --- |
| 226.4 °C (dec.) | COc1ccc(-c2cc(-c3ccc(OC)cc3)c3c(c2O)C(=O)c2ccccc2C3=O)cc1 [Compound 35, 1-Hydroxy-2,4-di-(4-methoxyphenyl)anthracene-9,10-dione] | 26.7 ± 1.86 | 25.7 ± 3.14 | 17.7 ± 0.96 | 9.8 ± 0.56 | 7.6 ± 0.64 | cause a retardation of plasmid DNA | 20.2 ± 1.04 | 5.9 ± 0.52 | 10.1 ± 1.08 |  |  |  |  |  |  |  |
| 209.2 to 209.4 °C | COc1ccc(-c2ccc(O)c3c2C(=O)c2ccccc2C3=O)cc1 [Compound 15, 1-Hydroxy-4-(4-methoxyphenyl)anthracene-9,10-dione] | 28.5 ± 0.96 | 45.4 ± 1.87 | 42 ± 2.04 | 11.6 ± 0.78 | 6.8 ± 0.58 | cause a retardation of plasmid DNA | 32.1 ± 1.54 | 6.5 ± 0.48 | 9.6 ± 1.04 |  |  |  |  |  |  |  |
| 209.5 °C (dec.) | COc1ccc(-c2ccc3c(c2O)C(=O)c2ccccc2C3=O)cc1 [Compound 27, 1-Hydroxy-2-(4-methoxyphenyl)anthracene-9,10-dione] | > 100 | 35.8 ± 2.17 | 46.5 ± 1.21 | 21.6 ± 0.38 | 23.2 ± 2.34 | cause a retardation of plasmid DNA | 38.6 ± 1.36 | 19.1 ± 0.78 | 8.5 ± 0.32 |  |  |  |  |  |  |  |
| 190 °C (dec.) | O=C1c2ccccc2C(=O)c2c(-c3ccoc3)ccc(O)c21 [Compound 23, 1-(Furan-3-yl)-4-hydroxyanthracene-9,10-dione] | 22.2 ± 2.12 | 58.7 ± 2.48 | 69.5 ± 1.52 | 34.8 ± 1.06 | 18.2 ± 1.27 | cause a retardation of plasmid DNA | 56.1 ± 1.96 | 15.4 ± 0.96 | 37 ± 1.41 | 22.71 | 34.6 | 17.3 | 32.5 | 3.1 | 11.8 |  |
| 176.3 °C (dec.) | COc1cccc(-c2ccc3c(c2O)C(=O)c2ccccc2C3=O)c1OC [Compound 28, 2-(2,3-Dimethoxyphenyl)-1-hydroxyanthracene-9,10-dione] | 23.1 ± 1.24 | > 100 | 51.3 ± 3.18 | 32.6 ± 1.68 | 42.4 ± 3.32 |  | 18.2 ± 0.86 | > 100 | 5.77 ± 0.23 | 16.83 | 54.5 | 13.7 | 22.4 | 3.6 | 5.8 |  |
| 226.8 °C (dec.) | COc1cc(-c2cc(-c3ccc(Cl)cc3C(F)(F)F)c3c(c2O)C(=O)c2ccccc2C3=O)cc(OC)c1OC [Compound 45, 4-(4-Chloro-2-(trifluoromethyl)phenyl)-1-hydroxy-2-(3,4,5-trimethoxyphenyl)-anthracene-9,10-dione] | 6.2 to 7.2 | 18.2 ± 1.06 | 20.5 ± 2.68 | 28.3 ± 3.25 | 14.2 ± 1.42 |  | 31.5 ± 1.52 | 22.6 ± 0.91 | 11.2 ± 1.49 |  |  |  |  |  |  | 7.2 ± 0.74 |
| 217.4 °C (dec.) | COc1cc(-c2cc(Br)c3c(c2O)C(=O)c2ccccc2C3=O)cc(OC)c1OC [Compound 42, 4-Bromo-1-hydroxy-2-(3,4,5-trimethoxyphenyl)anthracene-9,10-dione] | 71.8 ± 9.76 | > 100 | 18.2 ± 2.19 | 11.5 ± 1.34 | 21.1 ± 3.28 |  | > 100 | 23.9 ± 4.28 | 31.6 ± 2.16 |  |  |  |  |  |  |  |
| 141.8 °C (dec.) | O=C1c2ccccc2C(=O)c2c(-c3ccco3)ccc(O)c21 [Compound 22, 1-(Furan-2-yl)-4-hydroxyanthracene-9,10-dione] | 21.1 ± 0.85 | > 100 | 52.2 ± 8.01 | > 100 | > 100 |  | > 100 | 24.2 ± 1.32 | > 100 |  |  |  |  |  |  |  |
| 241.3 °C (dec.) | COc1ccc(-c2cc(Br)c(O)c3c2C(=O)c2ccccc2C3=O)cc1 [Compound 41, 2-Bromo-1-hydroxy-4-(4-methoxyphenyl)anthracene-9,10-dione] | 41.1 ± 5.15 | 44.5 ± 1.56 | 17.2 ± 0.62 | 29.7 ± 2.05 | 15.8 ± 0.82 |  | 44.1 ± 3.23 | > 100 | 14.1 ± 3.15 |  |  |  |  |  |  |  |
